From ChEMBL document CHEMBL1137091, “Carbonic anhydrase inhibitors. Design of selective, membrane-impermeant inhibitors targeting the human tumor-associated isozyme IX” (J Med Chem, 2004)

Legend:
Homo sapiens [1] = species on record: Homo sapiens; experiment: Relative transport activity for the inhibition of Cl-/NO3- exchange measured for AE1 transfected cells (before and after treatment with CAI); assay type: functional
Homo sapiens [2] = species on record: Homo sapiens; experiment: Percentage inhibition for the inhibition of Cl-/NO3- exchange measured for AE1 transfected cells (before and after treatment with CAI); assay type: functional
Homo sapiens [3] = species on record: Homo sapiens; experiment: Inhibitory concentration for the half maximal inhibition of Cl-/NO3- exchange measured for AE1 transfected cells (before and after treatment with CAI); assay type: functional
Carbonic anhydrase 9 = Carbonic anhydrase 9 (Homo sapiens, UniProt Q16790)
Description: Inhibition constant evaluated for the inhibition of human CA IX (Carbonic anhydrase IX)

Carbonic anhydrase 4 = target: T1, Carbonic anhydrase 4 (Bos taurus, UniProt Q95323)
T1 sequence (Q95323 whole entry): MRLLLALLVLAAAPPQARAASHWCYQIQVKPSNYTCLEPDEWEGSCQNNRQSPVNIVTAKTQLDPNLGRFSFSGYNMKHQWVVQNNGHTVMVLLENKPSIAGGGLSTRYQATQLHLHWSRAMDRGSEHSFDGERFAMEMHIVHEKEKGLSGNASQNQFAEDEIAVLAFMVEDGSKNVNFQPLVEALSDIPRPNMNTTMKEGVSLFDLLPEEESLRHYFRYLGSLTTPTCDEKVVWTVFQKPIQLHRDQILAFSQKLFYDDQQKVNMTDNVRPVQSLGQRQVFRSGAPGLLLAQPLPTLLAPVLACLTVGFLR
Description: Inhibition constant evaluated for the inhibition of bovine CA IV (Carbonic anhydrase IV)

Carbonic anhydrase 2 = Carbonic anhydrase 2 (Homo sapiens, UniProt P00918)
Description: Inhibition constant evaluated for the inhibition of human CA II (Carbonic anhydrase II)

Carbonic anhydrase 1 = Carbonic anhydrase 1 (Homo sapiens, UniProt P00915)
Chain of Carbonic anhydrase 1 (P00915 whole entry): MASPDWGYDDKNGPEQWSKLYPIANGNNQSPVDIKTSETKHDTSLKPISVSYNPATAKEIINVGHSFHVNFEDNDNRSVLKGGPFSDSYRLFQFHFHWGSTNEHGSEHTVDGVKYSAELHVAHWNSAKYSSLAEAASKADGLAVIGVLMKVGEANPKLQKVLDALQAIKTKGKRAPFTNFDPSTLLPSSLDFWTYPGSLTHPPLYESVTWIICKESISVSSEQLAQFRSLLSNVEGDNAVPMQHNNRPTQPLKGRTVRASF
Description: Inhibition constant evaluated for the inhibition of human CA I (Carbonic anhydrase I)

| Structure (SMILES) | Activity (Homo sapiens [1]) | Inhibition (Homo sapiens [2]) [%] | IC50 (Homo sapiens [3]) [µM] | Ki (Carbonic anhydrase 9) [µM] | Ki (Carbonic anhydrase 4) [µM] | Ki (Carbonic anhydrase 2) [µM] | Ki (Carbonic anhydrase 1) [µM] |
| --- | --- | --- | --- | --- | --- | --- | --- |
| CCCCc1cc(-c2ccccc2)cc(CCCC)[n+]1-c1ccc(S(=O)(=O)Nc2nnc(S(N)(=O)=O)s2)cc1.[O-][Cl+3]([O-])([O-])[O-] | 0.709 | 34 | 1510 | – | – | – | – |
| Cc1c2cc(c(C)[n+]1-c1ccc(S(=O)(=O)Nc3nnc(S(N)(=O)=O)s3)cc1)CCCCCCCCC2.[O-][Cl+3]([O-])([O-])[O-] | 1 | – | – | 0.012 | 0.0046 | 0.00137 | 0.003 |
| CCCc1cc(-c2ccccc2)cc(CCC)[n+]1-c1ccc(S(=O)(=O)Nc2nnc(S(N)(=O)=O)s2)cc1.[O-][Cl+3]([O-])([O-])[O-] | 0.651 | 32 | 126 | – | – | – | – |
